What was measured:
Format in all cases: in vivo
[1] = tested on: barnyardgrass (Echinochiloa oryzicola: ECHOR); experiment: Test Example 3 water application herbicidal activity (paddy), ECHOR; conditions: 63 g a.i./ha, water application under submerged condition at 0.5 leaf stage, visually observed 14th day after application; 0 = untreated control, 100 = complete kill
Procedure, shortened: (§1)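 Compound, as diluted wettable powder or emulsifiable concentrate, was pipetted into flood water at a set active-ingredient dose. Weeds were treated at 0.5-leaf stage after sowing or tuber planting; 2-leaf rice 4 days post-transplant. Control scored visually, 0 untreated to 100 complete kill, weeds day 14, rice day 21.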

[2] = tested on: prickly sida (Sida spinosa L.), SIDSP; experiment: Test Example 2 post-emergence (foliage treatment) herbicidal activity, SIDSP; conditions: 63 g a.i./ha
Procedure, shortened: (§2)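 Each species was evaluated for growth suppression by eye, 0% matching untreated and 100% meaning death, some 20 to 23 days after a single post-emergence foliar treatment applied in 500 L/ha of water carrying 0.1% (v/v) agricultural spreader.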

[3] = tested on: japanese bulrush (Scirpus juncoides: SCPJO); experiment: Test Example 3 water application herbicidal activity (paddy), SCPJO; conditions: 63 g a.i./ha, water application under submerged condition at 0.5 leaf stage, visually observed 14th day after application; 0 = untreated control, 100 = complete kill
Procedure, shortened: as §1

[4] = tested on: soybean (Glycine max Merr.), GLXMA; experiment: Test Example 2 post-emergence (foliage treatment) herbicidal activity, GLXMA; conditions: 63 g a.i./ha
Procedure, shortened: as §2

[5] = tested on: barnyardgrass (Echinochloa crus-galli L.): ECHCG; experiment: Test Example 1 pre-emergence herbicidal activity, ECHCG; conditions: Rate 63 g a.i./ha, visually observed 20th to 23rd day after application
Procedure, shortened: (§3)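 Pots of upland soil were sown, and one day later WP or EC formulations at set active-ingredient rates were sprayed pre-emergence in 500 L/ha water. Growth control scored visually 20–23 days after application, 0 (as untreated) to 100 (complete kill).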

[6] = tested on: wheat (Triticum aestivum L.), TRZAX; experiment: Test Example 2 post-emergence (foliage treatment) herbicidal activity, TRZAX; conditions: 63 g a.i./ha
Procedure, shortened: as §2

[7] = tested on: rice (Oryza sativa L.), ORYSA; experiment: Test Example 2 post-emergence (foliage treatment) herbicidal activity, ORYSA; conditions: 63 g a.i./ha
Procedure, shortened: (§4)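 Plants grown in upland soil pots were sprayed on foliage at set leaf stages (ECHCG 1.1-2.1, DIGSA 1.0-2.0, AMARE 0.1-1.5, ORYSA 1.0-2). Formulated compound was applied at predetermined active-ingredient amounts in 500 L/ha water with 0.1% (v/v) spreader. Growth control (0–100%) was visually scored 20–23 days later.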

[8] = tested on: corn (Zea mays L.), ZEAMX; experiment: Test Example 2 post-emergence (foliage treatment) herbicidal activity, ZEAMX; conditions: 63 g a.i./ha
Procedure, shortened: as §2

[9] = tested on: wheat (Triticum aestivum L.): TRZAX; experiment: Test Example 1 pre-emergence herbicidal activity, TRZAX; conditions: Rate 63 g a.i./ha, visually observed 20th to 23rd day after application
Procedure, shortened: as §3

[10] = tested on: green foxtail (Setaria viridis L.), SETVI; experiment: Test Example 2 post-emergence (foliage treatment) herbicidal activity, SETVI; conditions: 63 g a.i./ha
Procedure, shortened: as §2

[11] = tested on: corn (Zea mays L.): ZEAMX; experiment: Test Example 1 pre-emergence herbicidal activity, ZEAMX; conditions: Rate 63 g a.i./ha, visually observed 20th to 23rd day after application
Procedure, shortened: as §3

[12] = tested on: redroot pigweed (Amaranthus retroflexus L.), AMARE; experiment: Test Example 2 post-emergence (foliage treatment) herbicidal activity, AMARE; conditions: 63 g a.i./ha
Procedure, shortened: as §4

[13] = tested on: redroot pigweed (Amaranthus retroflexus L.): AMARE; experiment: Test Example 1 pre-emergence herbicidal activity, AMARE; conditions: Rate 63 g a.i./ha, visually observed 20th to 23rd day after application
Procedure, shortened: as §3

[14] = tested on: rice (Oryza sativa L.): ORYSA; experiment: Test Example 1 pre-emergence herbicidal activity, ORYSA; conditions: Rate 63 g a.i./ha, visually observed 20th to 23rd day after application
Procedure, shortened: as §3

[15] = tested on: prickly sida (Sida spinosa L.): SEDSP; experiment: Test Example 1 pre-emergence herbicidal activity, SIDSP; conditions: Rate 63 g a.i./ha, visually observed 20th to 23rd day after application
Procedure, shortened: as §3

[16] = tested on: velvetleaf (Abutilon theophrasti), ABUTH; experiment: Test Example 2 post-emergence (foliage treatment) herbicidal activity, ABUTH; conditions: 63 g a.i./ha
Procedure, shortened: as §2

[17] = tested on: crabgrass (Digitaria sanguinalis L.), DIGSA; experiment: Test Example 2 post-emergence (foliage treatment) herbicidal activity, DIGSA; conditions: 63 g a.i./ha
Procedure, shortened: as §4

[18] = tested on: japanese ribbon wapato (Sagittaria pygmaea: SA GPY); experiment: Test Example 3 water application herbicidal activity (paddy), SAGPY; conditions: 63 g a.i./ha, water application under submerged condition, tubers planted, visually observed 14th day after application; 0 = untreated control, 100 = complete kill
Procedure, shortened: as §1

[19] = tested on: crabgrass (Digitaria sanguinalis L.): DIGSA; experiment: Test Example 1 pre-emergence herbicidal activity, DIGSA; conditions: Rate 63 g a.i./ha, visually observed 20th to 23rd day after application
Procedure, shortened: as §3

[20] = tested on: rice (Oryza sativa L.: ORYSA); experiment: Test Example 3 water application herbicidal activity (paddy), transplanted rice ORYSA; conditions: 63 g a.i./ha, water application 4th day after transplantation of 2 leaf stage rice, visually observed 21st day after application; 0 = untreated control, 100 = complete kill
Procedure, shortened: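 Submerged application in flooded paddy soil (3–4 cm water); weeds treated at 0.5-leaf stage, transplanted rice 4 d after transplanting. Scored visually as % growth control: weeds at 14 d, rice at 21 d.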

[21] = tested on: soybean (Glycine max Merr.): GLXMA; experiment: Test Example 1 pre-emergence herbicidal activity, GLXMA; conditions: Rate 63 g a.i./ha, visually observed 20th to 23rd day after application
Procedure, shortened: as §3

[22] = tested on: velvetleaf (Abutilon theophrasti): ABUTH; experiment: Test Example 1 pre-emergence herbicidal activity, ABUTH; conditions: Rate 63 g a.i./ha, visually observed 20th to 23rd day after application
Procedure, shortened: as §3

[23] = tested on: barnyardgrass (Echinochloa crus-galli L.), ECHCG; experiment: Test Example 2 post-emergence (foliage treatment) herbicidal activity, ECHCG; conditions: 63 g a.i./ha
Procedure, shortened: as §4

[24] = tested on: green foxtail (Setaria viridis L.): SETVI; experiment: Test Example 1 pre-emergence herbicidal activity, SETVI; conditions: Rate 63 g a.i./ha, visually observed 20th to 23rd day after application
Procedure, shortened: as §3

SMILES | growth controlling degrees (%) ECHOR [1] | growth controlling degree, SIDSP [2] | growth controlling degrees (%) SCPJO [3] | growth controlling degree, GLXMA [4] | Pre-emergence Herbicidal Activity ECHCG (growth controlling degree) [5] | growth controlling degree, TRZAX [6] | growth controlling degree, ORYSA [7] | growth controlling degree, ZEAMX [8] | Pre-emergence Herbicidal Activity TRZAX (growth controlling degree) [9] | growth controlling degree, SETVI [10] | Pre-emergence Herbicidal Activity ZEAMX (growth controlling degree) [11] | growth controlling degree, AMARE [12] | Pre-emergence Herbicidal Activity AMARE (growth controlling degree) [13] | Pre-emergence Herbicidal Activity ORYSA (growth controlling degree) [14] | Pre-emergence Herbicidal Activity SIDSP (growth controlling degree) [15] | growth controlling degree, ABUTH [16] | growth controlling degree, DIGSP [17] | growth controlling degrees (%) SAGPY [18] | Pre-emergence Herbicidal Activity DIGSP (growth controlling degree) [19] | growth controlling degrees (%) ORYSA [20] | other results
COc1c(Cl)cc(F)c(-c2nn(C)c(OC(F)F)c2Cl)c1NC(=O)COc1ccc(Cl)cc1 [Compound 1-35] | 100% | 100% | 70% | 80% | 20% | 40% | 60% | 60% | 20% | 95% | 0% | 100% | 100% | 40% | 20% | 100% | 70% | 60% | 50% | 30% | Pre-emergence Herbicidal Activity GLXMA (growth controlling degree) [21]: 0%; Pre-emergence Herbicidal Activity ABUTH (growth controlling degree) [22]: 20%; growth controlling degree, ECHCO [23]: 80%; Pre-emergence Herbicidal Activity SETVI (growth controlling degree) [24]: 80%
COc1c(Cl)cc(F)c(-c2nn(C)c(OC(F)F)c2Cl)c1NC(=O)C(C)Oc1ccccc1 (stereo not drawn) [Compound 1-33] | 100% | 100% | 40% | 60% | 30% | 30% | 50% | 60% | 10% | 98% | 0% | 100% | 95% | 10% | 50% | 100% | 70% | 98% | 40% | 35% | Pre-emergence Herbicidal Activity GLXMA (growth controlling degree) [21]: 0%; Pre-emergence Herbicidal Activity ABUTH (growth controlling degree) [22]: 40%; growth controlling degree, ECHCO [23]: 80%; Pre-emergence Herbicidal Activity SETVI (growth controlling degree) [24]: 50%
COc1c(Cl)cc(F)c(-c2nn(C)c(OC(F)F)c2Cl)c1NC(=O)C=Cc1c(Cl)cccc1Cl [Compound 1-252] | 100% | 100% | 30% | 80% | 30% | 50% | 50% | 50% | 10% | 100% | 0% | 100% | 100% | 10% | 20% | 100% | 95% | 60% | 40% | 10% | Pre-emergence Herbicidal Activity GLXMA (growth controlling degree) [21]: 0%; Pre-emergence Herbicidal Activity ABUTH (growth controlling degree) [22]: 50%; growth controlling degree, ECHCO [23]: 100%; Pre-emergence Herbicidal Activity SETVI (growth controlling degree) [24]: 50%
COC(=O)Nc1c(OC)c(Cl)cc(F)c1-c1nn(C)c(OC(F)F)c1Cl [Compound 1-62] | 100% | 100% | 100% | 80% | 100% | 30% | 80% | 80% | 60% | 100% | 30% | 100% | 100% | 80% | 100% | 100% | 100% | 100% | 100% | 70% | Pre-emergence Herbicidal Activity GLXMA (growth controlling degree) [21]: 20%; Pre-emergence Herbicidal Activity ABUTH (growth controlling degree) [22]: 100%; growth controlling degree, ECHCO [23]: 100%; Pre-emergence Herbicidal Activity SETVI (growth controlling degree) [24]: 100%
COc1c(Cl)cc(F)c(-c2nn(C)c(OC(F)F)c2Cl)c1NC(=O)COc1ccc(C#N)cc1 [Compound 1-36] | 100% | 100% | 40% | 50% | 10% | 10% | 20% | 0% | 0% | 60% | 0% | 100% | 100% | 10% | 20% | 100% | 60% | 70% | 30% | 35% | Pre-emergence Herbicidal Activity GLXMA (growth controlling degree) [21]: 0%; Pre-emergence Herbicidal Activity ABUTH (growth controlling degree) [22]: 30%; growth controlling degree, ECHCO [23]: 50%; Pre-emergence Herbicidal Activity SETVI (growth controlling degree) [24]: 60%
COc1c(Cl)cc(F)c(-c2nn(C)c(OC(F)F)c2Cl)c1N(C=O)C(C)C [Compound 1-8] | 80% | 100% | 60% | 70% | 70% | 50% | 60% | 40% | 50% | 100% | 40% | 100% | 100% | 60% | 100% | 100% | 60% | 20% | 60% | 30% | Pre-emergence Herbicidal Activity GLXMA (growth controlling degree) [21]: 70%; Pre-emergence Herbicidal Activity ABUTH (growth controlling degree) [22]: 100%; growth controlling degree, ECHCO [23]: 70%; Pre-emergence Herbicidal Activity SETVI (growth controlling degree) [24]: 100%

— US20050245399A1, “Pyrazole derivatives as herbicidal compositions containing them” (ISHIHARA SANGYO KAISHA, LTD., priority 2004, published 2005)
